Experimental data reported in US7608724B2, “Antibacterial and/or antiprotozoal nitromidazole derivative compounds with urease inhibitor activity, process for preparing these compounds and use in pharmaceutical compositions and medicines” (EMS S.A., priority 2003, dated 2009).

Assays:
urease = assay: Urease inhibiting test (phenol red, formation of ammonium from urea); assay type: biochemical; details: molar concentration of 30 nM
Experimental: Urease inhibition is evaluated by the assay based on RUÍZ-HERRERA, J; GONZALEZ, L. A (1969) and has the objective to verify in the visible spectra, by using phenol red as indicator, the formation of ammonium from urea according to the following reaction: […]

[1] = test system: Salmonella typhimurium T-100 strain; assay: Ames Test without metabolic activation (−S9), mutagenic activity; assay type: cell-based; details: for revertant colonies per plate (mean ± standard deviation): −S9, T-100 strain; for mutagenic rate (RM): −S9, positive response ≧2
Experimental: The mutagenic activity of the compounds were evaluated by The Ames Test without metabolic activation (−S9), with Salmonella typhimurium T-100 strain. The test is based in the fact that indicating S. typhimurium strains are sensitive to substances capable of inducing different kinds of mutation. In the presence of mutagenic agents, these strains revert the character of histidine auxotrophic synthesis, and start forming colonies in a medium were this aminoacid is absent. The mutagenic activity of a compound as its concentration function is established by counting the number of colonies per plate.
The final data obtained were analyzed by using Salanal software (Salmonella Assay Analysis) Version 1.0 from Research Triangle Institute, RTP, North Carolina, USA. This software allows to evaluate the dose-answer response by performing an analysis of variance (ANOVA f-test) between the mean revertants number in the different tested concentrations (doses) and the negative control, followed by a linear regression. […] The slope of the linear part of response-dosage curve is also furnished by the program and it corresponds to the number of revertants induced per mg of the sample analyzed.
MR is calculated by the following equation: […]

Row | Compound | Urease inhibiting percentage (urease; 1 minute) | Urease inhibiting percentage (urease; 2 minutes) | Urease inhibiting percentage (urease; 3 minutes) | revertant colonies per plate (mean ± standard deviation) ([1]; 2.9 (mM)/plate) | mutagenic rate (RM) ([1]; 2.9 (mM)/plate) | revertant colonies per plate (mean ± standard deviation) ([1]; 14.6 (mM)/plate) | mutagenic rate (RM) ([1]; 14.6 (mM)/plate) | revertant colonies per plate (mean ± standard deviation) ([1]; 29.2 (mM)/plate) | mutagenic rate (RM) ([1]; 29.2 (mM)/plate) | revertant colonies per plate (mean ± standard deviation) ([1]; 58.4 (mM)/plate) | mutagenic rate (RM) ([1]; 58.4 (mM)/plate) | revertant colonies per plate (mean ± standard deviation) ([1]; 116.9 (mM)/plate) | mutagenic rate (RM) ([1]; 116.9 (mM)/plate) | mutagenic activity compared with metronidazole parent drug or its monosuccinate ester (example 1) ([1]; FIG. 1, from table 1)
1 | Cc1ncc([N+](=O)[O-])n1CCOC(=O)CCC(=O)NC(=S)NC(=O)CCC(=O)OCCn1c([N+](=O)[O-])cnc1C [Example 5, Bis[2-(2-methyl-5-nitro-1H-imidazol-1-yl)ethyl]4,4′[(thioxomethylene)diimine]bis(4-oxobutanoate)] | 74% | 67% | 65% | 162 ± 29 colonies per plate | RM = 1.3 | 316 ± 19 colonies per plate | RM = 2.5 | 606 ± 94 colonies per plate | RM = 4.8 | 1095 ± 100 colonies per plate | RM = 8.7 | 1582 ± 79 colonies per plate | RM = 12.5 | very inferior
2 | Cc1ncc([N+](=O)[O-])n1CCO [Metronidazole, 2-(2-methyl-5-nitro-1H-imidazol-1-yl)ethanol] | 6% | 7% | 7% | – | – | – | – | – | – | – | – | – | – | –
3 | NC(N)=S [Tiourea, thiourea] | 23% | 16% | 17% | – | – | – | – | – | – | – | – | – | – | –
